These results are taken from US10604512B2, “3-(1H-indol-2-yl)-1H-indazoles and therapeutic uses thereof” (Samumed, LLC, priority 2015, dated 2020).

Each structure is given as a SMILES string. pEC50: −log10 of the molar value.

Experiment [1] deals with Wnt activity (Sp5-Luc reporter, TCF/LEF binding sites) in SW480 colon carcinoma cells. Description: Screening assay for Wnt activity: Sp5-Luc reporter gene assay in stably transduced SW480 colon carcinoma cells. The experiment is classed as cell-based. The note with it: Homo sapiens, overnight incubation, 10-point curve from 10 μM. The essentials:
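SW480 cells stably transduced with a luciferase reporter driven by an Sp5 promoter of eight TCF/LEF sites were plated at 4,000 cells/well in 1% FBS medium. They were exposed overnight at 37° C to a 10-point 1:3 dilution series from 10 μM (0.1% DMSO). Luminescence was normalized to DMSO for four-parameter EC50, or percent inhibition at 10 μM.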

For experiment [2], the system named is primary human mesenchymal stem cells (hMSCs). The experiment can be described thus: Induction of chondrogenesis in primary human mesenchymal stem cells (nodule imaging, Rhodamine B / Nile Red). The experiment is classed as cell-based. The essentials:
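hMSCs (passage 3–6) in incomplete chondrogenic induction medium dosed at 2700–10 nM (96-well) or 5000–2.2 nM (384-well), 0.03% DMSO, for 6 days at 37 °C. Fixed cells stained with Rhodamine B/Nile Red and nodule area imaged, normalized to DMSO wells (fold change). EC50 set against TGF-β3 (10 ng/mL); maximum activity and its dose also reported.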

`c1cncc(-c2cccc3[nH]c(-c4n[nH]c5ccc(-c6cncnc6)cc45)cc23)c1` [Compound 111, 3-(4-(Pyridin-3-yl)-1H-indol-2-yl)-5-(pyrimidin-5-yl)-1H-indazole] had a negative logarithm of the EC50 (pEC50) in experiment [1] of 6.00. For the same compound, in experiment [2] (concentration required to induce 50% levels of chondrogenesis vs TGF-β3 positive control, read-out: Conc (nM) of 50% TGF-β3 activity), the EC50 is 10 nM. In experiment [2] (maximum chondrogenesis activity relative to TGF-β3 (10 ng/mL) positive control, read-out: Max. Activity as % TGF-β3 activity), the Emax worked out at 202%.
